Key:
STAT3 = STAT3 (Homo sapiens, UniProt P40763); settings: cited from earlier work
ERBB2 = settings: cited from earlier work
[1] = system: human airway microvasculature endothelial cells; experiment: Endothelial cell activation assessed by expression of Vcam1 (CD106); type: cell-based; settings: IL-13 challenge of human lung endothelial cells
From the text: Given the robust inflammatory response triggered by xenografts of COPD clone libraries, the inventors asked if this inflammatory activity was a function of one or more of the constituent clone types. Using pathway enrichment analysis algorithms for the gene expression profiles of the four clone types, the multiple inflammatory pathways highlighted in clones of Cluster 4 was striking including Antigen Presentation, Interferon Signaling, Graft-vs-Host responses, and Dendritic Cell Maturation among others, and their relative absence from clones of Clusters 1, 2, and 3 (FIG. 5A; FIG. 12A). The inventors tested media conditioned by clones of Clusters 1-4 for their ability to trigger phase I and II activation of human airway microvasculature endothelial cells, an essential step in leukocyte recruitment (Filippi, 2016). […] In this same assay media conditioned by Cluster 2 (GCM) or Cluster 3 (SCM) clones, respectively, yielded 4- and 10-fold inductions of VCAM1, and while media from Cluster 4 (iSCM) clones induced Vcam1 by 60-fold (FIG. 12B).

Sequence of STAT3 (P40763 whole entry): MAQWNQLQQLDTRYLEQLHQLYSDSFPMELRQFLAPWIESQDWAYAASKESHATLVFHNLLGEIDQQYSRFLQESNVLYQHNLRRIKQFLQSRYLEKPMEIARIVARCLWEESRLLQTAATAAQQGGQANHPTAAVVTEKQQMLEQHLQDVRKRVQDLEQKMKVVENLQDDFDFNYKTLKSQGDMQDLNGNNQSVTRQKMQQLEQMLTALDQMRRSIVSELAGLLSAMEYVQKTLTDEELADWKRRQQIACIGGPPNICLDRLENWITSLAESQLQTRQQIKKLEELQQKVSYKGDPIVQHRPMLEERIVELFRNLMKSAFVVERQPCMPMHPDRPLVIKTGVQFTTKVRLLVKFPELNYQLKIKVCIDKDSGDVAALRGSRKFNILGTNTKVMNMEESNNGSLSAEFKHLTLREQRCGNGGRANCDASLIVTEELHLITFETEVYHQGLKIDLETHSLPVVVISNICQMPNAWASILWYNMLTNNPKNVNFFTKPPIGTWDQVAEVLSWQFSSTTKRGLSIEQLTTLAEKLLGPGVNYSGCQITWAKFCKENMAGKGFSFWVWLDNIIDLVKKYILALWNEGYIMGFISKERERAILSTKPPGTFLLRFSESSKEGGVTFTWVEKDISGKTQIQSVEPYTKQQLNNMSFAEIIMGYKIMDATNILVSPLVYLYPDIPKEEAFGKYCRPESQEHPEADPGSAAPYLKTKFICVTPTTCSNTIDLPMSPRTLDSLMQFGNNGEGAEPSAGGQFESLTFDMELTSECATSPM

O=[N+]([O-])c1ccc2c(c1)S(=O)(=O)C=C2 [Stattic]
IC50 (STAT3; cell-free assays, read-out: IC50 of STAT3 activation and nuclear translocation): 5.1 µM
selectivity over STAT1 (STAT3): highly selectivity over STAT1

C=CC(=O)Nc1cccc(Sc2nc(Nc3ccc(N4CCN(C)CC4)cc3)ncc2Cl)c1 [WZ8040]
inhibition of ERBB2 phosphorylation (ERBB2): does not inhibit

IL-13: Human IL-13 Recombinant Protein
induction of Vcam1 [1]: 30 fold

Source: patent US20210401987A1, “METHODS AND COMPOSITIONS FOR TREATING INFLAMMATORY AND FIBROTIC PULMONARY DISORDERS” (University of Houston System, priority 2020, published 2021)
